Results as given in US4172130A, “α-AMINOACYL CONTAINING NEW PEPTIDES WITH GASTRIN EFFECTS AND A PROCESS FOR THE PREPARATION THEREOF” (Richter Gedeon Vegyeszeti Gyar RT, priority 1976, dated 1979).
Peptide text beside a SMILES is read from it. * marks the point of attachment. X2 = CC(C)(C)OC(=O)NOCC(=O)*

What was measured:
gastric acid secretion [1] = assay: Gastric acid secretion increasing effect, methods of Ghosh and Schild and Lai, modified by Pissidis and Clark; type: in vivo; settings: for Activity, % (gastric acid secretion increasing effect): in comparison with 0.2 μ/100 g i.v. dosage of pentagastrin = 100%
Protocol: The biological activities of the new compounds according to the invention were tested by the methods of Ghosh and Schild (Br. J. Pharmac. Chemoth. 13, 54 (1958) and Lai (Gut. 5, 327 (1964), modified by Pissidis and Clark (Gut. 8, 196 (1967)). The pharmacological tests have shown that the gastric acid secretion provoked by the new compounds is occasionally higher by 20 to 80% than that provoked by the same dosage of pentagastrin. It is particularly remarkable that the new compounds, in contrast with pentagastrin, are resorbed also from the small intenstine, and, when administered to the small intenstine in a dosage of 20 μg/100 g body weight, exert effects similar to that exerted by a 0.2 μg/100 g i.v. dosage of pentagastrin. […] It is also remarkable that some of the new compounds increase the gastric acid secretion after resorption from the rectum.

gastric acid secretion [2] = settings: in vivo; cited from earlier work

Row | Molecule | Activity, % (gastric acid secretion increasing effect) (gastric acid secretion [1]; 0.2 μg i.v.) [%] | Activity, % (gastric acid secretion increasing effect) (gastric acid secretion [1]; 20 μg rectal) [%] | also measured
1 | CSCC[C@H](NC(=O)[C@H](Cc1c[nH]c2ccccc12)NC(=O)CCONC(=O)OC(C)(C)C)C(=O)N[C@@H](CC(=O)O)C(=O)N[C@@H](Cc1ccccc1)C(=O)NOCC(=O)O [BOC-β-OAla Met OGly-OH, 2-(3-(tert.-Butoxycarbonyl-aminooxy)-propionyl-L-tryptophyl-L-methionyl-L-aspartyl-L-phenylalanyl-aminooxy)-acetic acid] | 32 | – | –
2 | CSCC[C@H](NC(=O)[C@H](Cc1c[nH]c2ccccc12)NC(=O)CCNC(=O)OC(C)(C)C)C(=O)N[C@@H](CC(=O)O)C(=O)N[C@@H](Cc1ccccc1)C(N)=O [pentagastrin, BOC--β--Ala-- Trp--Met--Asp--Phe--NH2, reference compound] | 100 | – | gastric acid secretion when administered enterally (gastric acid secretion [1]; enteral, even in higher dosages): does not increase the gastric acid secretion; activity among known analogs and derivatives of the tetrapeptide-amide / compared with pentagastrin (gastric acid secretion [2]): the most active derivative
3 | CC(C)C[C@H](NC(=O)[C@H](Cc1c[nH]c2ccccc12)NC(=O)CONC(=O)OC(C)(C)C)C(=O)N[C@@H](CC(=O)O)C(=O)N[C@@H](Cc1ccccc1)C(N)=O [BOC-OGly Leu H, 2-(tert.-Butoxycarbonyl-aminooxy)-acetyl-L-tryptophyl-L-leucyl-L-aspartyl-L-phenylalanine-amide] (X2-WLDF-NH2) | 124 | 68 | Activity, % (gastric acid secretion increasing effect) (gastric acid secretion [1]; 2.0 μg i.v.): 272%; Activity, % (gastric acid secretion increasing effect) (gastric acid secretion [1]; 20 μg intestinal): 6%
4 | CSCC[C@H](NC(=O)[C@H](Cc1c[nH]c2ccccc12)NC(=O)CONC(=O)OC(C)(C)C)C(=O)N[C@@H](CC(=O)O)C(=O)N[C@@H](Cc1ccccc1)C(=O)NOCC(=O)O [BOC-O-Gly Met OGly-OH, 2-(2-(tert.-Butoxycarbonyl-aminooxy)-acetyl-L-tryptophyl-L-methionyl-L-aspartyl-L-phenylalanyl-aminooxy)-acetic acid] | 25 | 22 | –
5 | H--Trp--Met--Asp--Phe--NH2: carboxy-terminal tetrapeptide-amide, the biologically active center of gastrin | – | – | gastric acid secretion stimulating effect compared with the total hormone (gastrin) (gastric acid secretion [2]): lower by about one order of magnitude
